ChEMBL document CHEMBL1201862, “PubChem BioAssay data set” (2004)
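Cells were grown in 96-well plates and exposed to each compound for 48 hours at five concentrations; endpoints were interpolated linearly between bracketing concentrations, or set to the highest concentration if not reached. GI50 = concentration required for 50% inhibition of growth.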 The source made the active and inactive calls. Cut-off read from the data, not from the text of the source: active = GI50 up to about 1.1 µM and inactive = higher.

Columns and labels:
Test in all cases: NCI tumour cell line growth inhibition, 48 h
A549 = tested on: A549
Malme-3M = tested on: Malme-3M
HCC 2998 = tested on: HCC 2998
RPMI-8226 = tested on: RPMI-8226
TK-10 = tested on: TK-10
MDA-MB-231 = tested on: MDA-MB-231
IGROV-1 = tested on: IGROV-1
UO-31 = tested on: UO-31
NCI-H23 = tested on: NCI-H23
CAKI-1 = tested on: CAKI-1
SNB-19 = tested on: SNB-19
CCRF-CEM = tested on: CCRF-CEM
RXF 393 = tested on: RXF 393
M14 = tested on: M14
SR = tested on: SR
HCT-116 = tested on: HCT-116
MOLT-4 = tested on: MOLT-4
SNB-75 = tested on: SNB-75
786-0 = tested on: 786-0
SF-539 = tested on: SF-539
MDA-N = tested on: MDA-N
T47D = tested on: T47D
NCI-H226 = tested on: NCI-H226
OVCAR-3 = tested on: OVCAR-3
MDA-MB-435 = tested on: MDA-MB-435
NCI/ADR-RES = tested on: NCI/ADR-RES
Hs-578T = tested on: Hs-578T
HOP-62 = tested on: HOP-62
SF-295 = tested on: SF-295
MCF7 = tested on: MCF7
U-251 = tested on: U-251
HOP-92 = tested on: HOP-92
SK-MEL-5 = tested on: SK-MEL-5
OVCAR-5 = tested on: OVCAR-5
HT-29 = tested on: HT-29
NCI-H522 = tested on: NCI-H522
SK-MEL-28 = tested on: SK-MEL-28
DU-145 = tested on: DU-145
COLO 205 = tested on: COLO 205
SF-268 = tested on: SF-268
SW-620 = tested on: SW-620
UACC-257 = tested on: UACC-257
ACHN = tested on: ACHN
NCI-H460 = tested on: NCI-H460
HL-60 = tested on: HL-60
OVCAR-8 = tested on: OVCAR-8
SN12C = tested on: SN12C
SK-MEL-2 = tested on: SK-MEL-2
LOX IMVI = tested on: LOX IMVI
A498 = tested on: A498
KM12 = tested on: KM12
UACC-62 = tested on: UACC-62
K562 = tested on: K562
EKVX = tested on: EKVX
HCT-15 = tested on: HCT-15
SK-OV-3 = tested on: SK-OV-3
OVCAR-4 = tested on: OVCAR-4
PC-3 = tested on: PC-3
BT-549 = tested on: BT-549

SMILES: CCCC(CC)c1cc(O)c(O)cc1C(CC)CCC (stereo not drawn)
- GI50 (A549): > 10 µM (inactive)
- GI50 (Malme-3M): > 10 µM (inactive)
- GI50 (HCC 2998): > 10 µM (inactive)
- GI50 (RPMI-8226): > 10 µM (inactive)
- GI50 (TK-10): > 10 µM (inactive)
- GI50 (MDA-MB-231): > 10 µM (inactive)
- GI50 (IGROV-1): > 10 µM (inactive)
- GI50 (UO-31): > 10 µM (inactive)
- GI50 (NCI-H23): > 10 µM (inactive)
- GI50 (CAKI-1): > 10 µM (inactive)
- GI50 (SNB-19): > 10 µM (inactive)
- GI50 (CCRF-CEM): > 10 µM (inactive)
- GI50 (RXF 393): > 10 µM (inactive)
- GI50 (M14): > 10 µM (inactive)
- GI50 (SR): > 10 µM (inactive)
- GI50 (HCT-116): > 10 µM (inactive)
- GI50 (MOLT-4): > 10 µM (inactive)
- GI50 (SNB-75): > 10 µM (inactive)
- GI50 (786-0): > 10 µM (inactive)
- GI50 (SF-539): > 10 µM (inactive)
- GI50 (MDA-N): > 10 µM (inactive)
- GI50 (T47D): > 10 µM (inactive)
- GI50 (NCI-H226): > 10 µM (inactive)
- GI50 (OVCAR-3): > 10 µM (inactive)
- GI50 (MDA-MB-435): > 10 µM (inactive)
- GI50 (NCI/ADR-RES): > 10 µM (inactive)
- GI50 (Hs-578T): > 10 µM (inactive)
- GI50 (HOP-62): > 10 µM (inactive)
- GI50 (SF-295): > 10 µM (inactive)
- GI50 (MCF7): > 10 µM (inactive)
- GI50 (U-251): > 10 µM (inactive)
- GI50 (HOP-92): > 10 µM (inactive)
- GI50 (SK-MEL-5): > 10 µM (inactive)
- GI50 (OVCAR-5): > 10 µM (inactive)
- GI50 (HT-29): > 10 µM (inactive)
- GI50 (NCI-H522): > 10 µM (inactive)
- GI50 (SK-MEL-28): > 10 µM (inactive)
- GI50 (DU-145): > 10 µM (inactive)
- GI50 (COLO 205): > 10 µM (inactive)
- GI50 (SF-268): > 10 µM (inactive)
- GI50 (SW-620): > 10 µM (inactive)
- GI50 (UACC-257): > 10 µM (inactive)
- GI50 (ACHN): > 10 µM (inactive)
- GI50 (NCI-H460): > 10 µM (inactive)
- GI50 (HL-60): > 10 µM (inactive)
- GI50 (OVCAR-8): > 10 µM (inactive)
- GI50 (SN12C): > 10 µM (inactive)
- GI50 (SK-MEL-2): > 10 µM (inactive)
- GI50 (LOX IMVI): > 10 µM (inactive)
- GI50 (A498): > 10 µM (inactive)
- GI50 (KM12): > 10 µM (inactive)
- GI50 (UACC-62): > 10 µM (inactive)
- GI50 (K562): > 10 µM (inactive)
- GI50 (EKVX): > 10 µM (inactive)
- GI50 (HCT-15): > 10 µM
- GI50 (SK-OV-3): > 10 µM (inactive)
- GI50 (OVCAR-4): > 10 µM (inactive)
- GI50 (PC-3): > 10 µM (inactive)
- GI50 (BT-549): > 10 µM (inactive)

SMILES: COC1=C2CC(C)CC(OC)[C@@H](OC(=O)CCN)[C@H](C)/C=C(\C)C(OC(N)=O)C(OC)/C=C\C=C(/C)C(=O)NC(=CC1=O)C2=O (stereo partly drawn)
- GI50 (A549): 15.7 µM (inactive)
- GI50 (Malme-3M): 0.735 µM (active)
- GI50 (HCC 2998): 1.91 µM (inactive)
- GI50 (RPMI-8226): 0.871 µM (active)
- GI50 (TK-10): 3.54 µM (inactive)
- GI50 (MDA-MB-231): 1.99 µM (inactive)
- GI50 (IGROV-1): 1.29 µM (inactive)
- GI50 (UO-31): 4.54 µM (inactive)
- GI50 (NCI-H23): 1.55 µM (inactive)
- GI50 (CAKI-1): 4.6 µM (inactive)
- GI50 (SNB-19): 7.57 µM (inactive)
- GI50 (CCRF-CEM): 0.343 µM (active)
- GI50 (RXF 393): 1.56 µM (inactive)
- GI50 (M14): 4.88 µM (inactive)
- GI50 (SR): 1.26 µM (inactive)
- GI50 (HCT-116): 1.82 µM (inactive)
- GI50 (MOLT-4): 0.483 µM (active)
- GI50 (SNB-75): 20.8 µM (inactive)
- GI50 (786-0): 1.05 µM (active)
- GI50 (SF-539): 4.4 µM (inactive)
- GI50 (MDA-N): 0.78 µM (active)
- GI50 (T47D): 0.486 µM (active)
- GI50 (NCI-H226): 20.4 µM (inactive)
- GI50 (OVCAR-3): 0.843 µM (active)
- GI50 (MDA-MB-435): 0.802 µM (active)
- GI50 (NCI/ADR-RES): 16.4 µM (inactive)
- GI50 (Hs-578T): 3.73 µM (inactive)
- GI50 (HOP-62): 6.38 µM (inactive)
- GI50 (SF-295): 16.5 µM (inactive)
- GI50 (MCF7): 0.528 µM (active)
- GI50 (U-251): 2.34 µM (inactive)
- GI50 (HOP-92): 0.697 µM (active)
- GI50 (SK-MEL-5): 2.92 µM (inactive)
- GI50 (OVCAR-5): 8.57 µM (inactive)
- GI50 (HT-29): 0.465 µM (active)
- GI50 (NCI-H522): 0.255 µM (active)
- GI50 (SK-MEL-28): 0.689 µM (active)
- GI50 (DU-145): 8.57 µM (inactive)
- GI50 (COLO 205): 0.27 µM (active)
- GI50 (SF-268): 9.06 µM (inactive)
- GI50 (SW-620): 0.357 µM (active)
- GI50 (UACC-257): 1.43 µM (inactive)
- GI50 (ACHN): 0.773 µM (active)
- GI50 (NCI-H460): 11.1 µM (inactive)
- GI50 (HL-60): 0.256 µM (active)
- GI50 (OVCAR-8): 1.9 µM (inactive)
- GI50 (SN12C): 1.07 µM (active)
- GI50 (SK-MEL-2): 9.06 µM (inactive)
- GI50 (LOX IMVI): 0.897 µM (active)
- GI50 (A498): 17.3 µM (inactive)
- GI50 (KM12): 2.64 µM (inactive)
- GI50 (UACC-62): 1.47 µM (inactive)
- GI50 (K562): 0.269 µM (active)
- GI50 (EKVX): 12 µM (inactive)
- GI50 (HCT-15): 2.43 µM
- GI50 (SK-OV-3): 12.8 µM (inactive)
- GI50 (OVCAR-4): 3.03 µM (inactive)
- GI50 (PC-3): 4.06 µM (inactive)
- GI50 (BT-549): 4.91 µM (inactive)
